Data: patent US20050112573A1, “Method of detecting toxic substance” (priority 2001, published 2005)
Read-outs that look alike come from different tables or passages of the source.

Experiments:
[1] = tested on: promoter of yeast gene YKL071w; assay type: cell-based, Saccharomyces cerevisiae W303
Excerpt: (§1) The inventors of the present application understood that the induction of certain yeast genes by toxic substances is caused by the activation of the promoters of the genes by the toxic substances. Thus, the inventors prepared a vector that comprised a polynucleotide sequence comprising the promoter of the yeast gene, which sequence is operably linked to a polynucleotide encoding a marker protein; and transformed yeast cells with the vector. […] The working examples hereinafter illustrate the preparation of such vectors, transformation of yeast cells by use of said vectors, and the detection of toxic substances by use of the transformed cells.
(§2) Promoter assay is a method for determining variations of the level of intracellular genes without destroying cells on the basis of the level of expressed marker genes instead of the expressed mRNA. The gene selected to detect a chemical substance is expressed in the absence of chemical substances, and thus a marker protein also occurs in the absence of chemical substances. In the method according to the present invention, the behavior of yeast genes on the addition of test materials is determined on the basis of the level of expressed marker protein so that the presence or the absence, and the kind of toxic chemical substances are predicted. Thus, it is desired that the production of marker proteins is lower in the absence of chemical substances, and the production of marker proteins is higher in the presence of chemical substances.
(§3) Type YEp shuttle vector pYES2 (pYES2, Cat no: V825-20, Invirtogen Corporation, USA), which can be replicated both in E. coli. and yeast was used as vector (R. W. Old, S. B. Primrose Principles of Gene Manipulation 5th Ed., BAIFUKAN CO., LTD, pp138-165, pp.234-263, 2000). The portion of vector pQBI 63 (Cat no.54-0082, Wako Pure Chemical Industries, Ltd.) corresponding to a marker protein GFP was used as the polynucleotide encoding GFP (SEQ ID No: 6). First, the GFP polynucleotide was inserted into the multiple cloning sites of pYES2 to give a vector. Thereafter, the GAL1 promoter of pYES2 was replaced with the polynucleotide comprising the promoter sequence of the intended yeast gene YKL071w (SEQ ID No: 1) to give an intended plasmid vector. Suitable restriction enzymes were selected, and the insertion of the polynucleotide comprising GFP and the promoter sequence was conducted.
(§4) Next, the yeast Saccharomyces cerevisiae W303 was transformed with the resultant plasmid vector according to the following procedures: • 1) Incubating the yeast Saccharomyces cerevisiae W303 in 200 ml of SD medium under shaking until OD 660 reaches 0.5; • 2) Suspending the collected cells in 5 ml of TE-buffer; • 3) Adding 250 μL of 2.5M lithium acetate; • 4) Dispending each 300 μl, adding 10 μl of above plasmid vector thereto, then incubating the suspensions at 30° C. for 30 minutes; • 5) Adding 700 μl of 50% PEG4000, and incubating the mixture under shaking at 30° C. for 60 minutes; • 6) Giving heat shock (42° C., 5 minutes), and then immediately cooling the mixture; • 7) Washing the mixture twice with 1M sorbitol; and • 8) Seeding it on agar plates made of minimum essential medium.
(§5) The cells of SC-YKL071W-pQBI as prepared in Example 2 were contacted to one of the following compounds. The yeast cells SC-YKL071W-pQBI were incubated at 25° C. in SD medium (Yeast nitrogen base without amino acids (Difco 0919-15)+glucose+amino acids (adenine, histidine, tryptophan)). One of toxic chemical substances as shown below was added to the cells at logarithmic growth phase, and then the cells were further incubated for two hours.

[2] = tested on: promoter of yeast gene YLL057c; assay type: cell-based, Saccharomyces cerevisiae W303; conditions: for expression of GFP: SC-YLL057C-pQBI cells, summary of Table 13
Excerpt: as §1, §2
as §3, with “PQBI” for “pQBI”, “GALL” for “GAL1”, “YLL057c” for “YKL071w”, “4)” for “1)”
as §4
as §5, with “of SC-YLL057C-pQBI” for “of SC-YKL071W-pQBI”, “Example 5” for “Example 2”, “cells SC-YLL057C-pQBI” for “cells SC-YKL071W-pQBI”

[3] = SC-YKL071W-pQBI cells, 25° C., two hours, each substance at the concentration given
[4] = cells SC-YLL057C-pQBI, 2 hours incubation with the substance at the concentration printed in its row (column Concentrations), GFP fluorescence vs control without chemical

Molecule	Fluorescens [1, 3]	Fluorescence [2, 4]	other results
HgCl2 [(3)]	− (the number of the cells having a higher fluorescence than the control was under 1%)	− (the number of the cells having a higher fluorescence than the control was under 1%)	–
O=S(=O)([O-])[O-].[Cu+2] [copper sulfate (II)]	–	–	Fluorescens [1]: − (key: −: the number of the cells having a higher fluorescence than the control was under 1%; +: between 1% and 2%; ++: 2% or more); Fluorescence [2]: − (key: −: the number of the cells having a higher fluorescence than the control was under 1%; +: between 1% and 2%; ++: 2% or more)
CN(C)C(=S)SSC(=S)N(C)C [(10), Tetramethylthiuram disulfide]	–	–	expression of GFP ([1]; SC-YKL071W-pQBI cells, summary of Table 10): induced the expression of GFP
[CH3][Hg][Cl] [methylmercury chloride]	− (the number of the cells having a higher fluorescence than the control was under 1%)	− (the number of the cells having a higher fluorescence than the control was under 1%)	–
CdCl2 [(2)]	− (the number of the cells having a higher fluorescence than the control was under 1%)	++ (2% or more)	expression of GFP [2]: induced the expression of GFP
CC(=O)O.Cc1nc(N)cc2[nH]c3ccccc3c12 [Trp-P-2 (acetate)]	–	–	Fluorescens [1]: − (key: −: the number of the cells having a higher fluorescence than the control was under 1%; +: between 1% and 2%; ++: 2% or more); Fluorescence [2]: − (key: −: the number of the cells having a higher fluorescence than the control was under 1%; +: between 1% and 2%; ++: 2% or more)
CCN(CC)C(=O)SCc1ccc(Cl)cc1 [S-4-Chlorobenzyl-N,N-diethylthiocarbamate]	− (the number of the cells having a higher fluorescence than the control was under 1%)	− (the number of the cells having a higher fluorescence than the control was under 1%)	–
Na2As [(1)]	− (the number of the cells having a higher fluorescence than the control was under 1%)	++ (2% or more)	expression of GFP [2]: induced the expression of GFP
[Cl][Ni][Cl] [nickel (II) chloride]	–	–	Fluorescens [1]: − (key: −: the number of the cells having a higher fluorescence than the control was under 1%; +: between 1% and 2%; ++: 2% or more); Fluorescence [2]: − (key: −: the number of the cells having a higher fluorescence than the control was under 1%; +: between 1% and 2%; ++: 2% or more)
CCCCC(CC)COC(=O)c1ccccc1C(=O)OCC(CC)CCCC (stereo not shown)	− (the number of the cells having a higher fluorescence than the control was under 1%)	− (the number of the cells having a higher fluorescence than the control was under 1%)	–
[K+].[K+].[O]=[Cr](=[O])([O-])[O][Cr](=[O])(=[O])[O-] [potassium bichromate]	− (the number of the cells having a higher fluorescence than the control was under 1%)	− (the number of the cells having a higher fluorescence than the control was under 1%)	–
γ-hexachlorocyclohexane [(7)]	− (the number of the cells having a higher fluorescence than the control was under 1%)	− (the number of the cells having a higher fluorescence than the control was under 1%)	–
manganese ethylenebis(dithiocarbamate) [(8)]	− (the number of the cells having a higher fluorescence than the control was under 1%)	− (the number of the cells having a higher fluorescence than the control was under 1%)	–
CCOC(=O)CC(SP(=S)(OC)OC)C(=O)OCC (stereo not shown) [malathon]	− (the number of the cells having a higher fluorescence than the control was under 1%)	− (the number of the cells having a higher fluorescence than the control was under 1%)	–
[Cl][Sn]([c]1ccccc1)([c]1ccccc1)[c]1ccccc1 [triphenyltin chloride]	− (the number of the cells having a higher fluorescence than the control was under 1%)	− (the number of the cells having a higher fluorescence than the control was under 1%)	–
